In ChEMBL document CHEMBL1201862, “PubChem BioAssay data set” (2004):
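These data come from cells grown in 96-well plates and exposed to compound for 48 hours at five concentrations. Here, GI50 denotes the concentration required for 50% inhibition of growth.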 The source made the active and inactive calls. Cut-off read from the data, not from the text of the source: active = GI50 up to about 1.1 µM and inactive = higher.

What was measured:
Assay in all cases: NCI anticancer screen, dose series, 48 h
U-251 = test system: U-251
TK-10 = test system: TK-10
M14 = test system: M14
SR = test system: SR
HOP-92 = test system: HOP-92
PC-3 = test system: PC-3
DU-145 = test system: DU-145
SF-295 = test system: SF-295
A498 = test system: A498
EKVX = test system: EKVX
HCT-116 = test system: HCT-116
BT-549 = test system: BT-549
COLO 205 = test system: COLO 205
HCT-15 = test system: HCT-15
SK-OV-3 = test system: SK-OV-3
SNB-75 = test system: SNB-75
SK-MEL-2 = test system: SK-MEL-2
HCC 2998 = test system: HCC 2998
Hs-578T = test system: Hs-578T
SK-MEL-5 = test system: SK-MEL-5

Row | Compound | GI50 (U-251) | GI50 (TK-10) | GI50 (M14) | GI50 (SR) | GI50 (HOP-92) | GI50 (PC-3) | GI50 (DU-145) | GI50 (SF-295) | GI50 (A498) | GI50 (EKVX) | GI50 (HCT-116) | GI50 (BT-549) | GI50 (COLO 205) | GI50 (HCT-15) | GI50 (SK-OV-3) | GI50 (SNB-75) | GI50 (SK-MEL-2) | GI50 (HCC 2998) | GI50 (Hs-578T) | GI50 (SK-MEL-5)
1 | Cc1cc(C)c(N[S+]([O-])c2cccc(Cl)c2)c(C)c1 (stereo not drawn) | > 100 µM (inactive) | > 100 µM (inactive) | > 100 µM (inactive) | > 100 µM (inactive) | > 100 µM (inactive) | > 100 µM (inactive) | > 100 µM (inactive) | > 100 µM (inactive) | 29.2 µM (inactive) | > 100 µM (inactive) | > 100 µM (inactive) | > 100 µM (inactive) | > 100 µM (inactive) | > 100 µM |  |  |  |  |  | 
2 | CSc1nc(-c2ccccc2)nc(C(C#N)C#N)n1 | > 100 µM (inactive) | > 100 µM (inactive) | > 100 µM (inactive) |  | > 100 µM (inactive) | > 100 µM (inactive) | > 100 µM (inactive) | > 100 µM (inactive) | > 100 µM (inactive) | > 100 µM (inactive) | > 100 µM (inactive) |  | > 100 µM (inactive) | > 100 µM | > 100 µM (inactive) | > 100 µM (inactive) | > 100 µM (inactive) | > 100 µM (inactive) | > 100 µM (inactive) | > 100 µM (inactive)
3 | COC(=O)[C@]1(c2cc3ccccc3n2S(=O)(=O)c2ccccc2)CC2CCC1NC2 (stereo partly drawn) | 13.6 µM (inactive) | 31.8 µM (inactive) | 14.2 µM (inactive) | < 0.01 µM (active) | 9.25 µM (inactive) | 12.1 µM (inactive) | 16.1 µM (inactive) | 16.9 µM (inactive) |  | 14.2 µM (inactive) | 13.7 µM (inactive) | 14.5 µM (inactive) | 14.4 µM (inactive) | 15.6 µM | 16.7 µM (inactive) | 12.7 µM (inactive) | 16.7 µM (inactive) | 9.38 µM (inactive) |  | 13 µM (inactive)
4 | Cc1ccc(C2(c3ccc(F)cc3)OC(=O)c3ccccc32)c(O)c1 (stereo not drawn) | 18.5 µM (inactive) | 15.1 µM (inactive) | 15 µM (inactive) |  | 16.6 µM (inactive) |  | 15.4 µM (inactive) | 11.5 µM (inactive) | 19.6 µM (inactive) | 16 µM (inactive) | 12.9 µM (inactive) | 19.7 µM (inactive) | 21.1 µM (inactive) | 15.2 µM | 11.9 µM (inactive) | 12.3 µM (inactive) | 14.7 µM (inactive) | 22.4 µM (inactive) | 20.1 µM (inactive) | 16.3 µM (inactive)
5 | C[N+](C)(C)CC(=O)N/N=C(\Cc1nc2ccc([N+](=O)[O-])cc2nc1O)C(=O)Nc1nc2ccc([N+](=O)[O-])cc2s1 | 56.6 µM (inactive) | 67.6 µM (inactive) | 55.1 µM (inactive) | 44.1 µM (inactive) | 29 µM (inactive) | 27.1 µM (inactive) | 39.4 µM (inactive) | 51.8 µM (inactive) | 51.5 µM (inactive) | 25 µM (inactive) | 51.9 µM (inactive) | 29.3 µM (inactive) | 48.8 µM (inactive) | 28 µM | 34 µM (inactive) | 21.5 µM (inactive) | 28.1 µM (inactive) | 36.9 µM (inactive) |  | 37.3 µM (inactive)
6 | C[C@H](CCC(=O)O)[C@H]1CC[C@H]2[C@@H]3[C@H](O)C[C@@H]4C[C@H](O)CC[C@]4(C)[C@H]3CC[C@]12C [CHENODIOL] | 37.6 µM (inactive) | 26.2 µM (inactive) | 27.7 µM (inactive) | 14.6 µM (inactive) | 30.3 µM (inactive) | 36.4 µM (inactive) | 43.2 µM (inactive) |  | 69.5 µM (inactive) | 33.8 µM (inactive) | 33.8 µM (inactive) | 36.3 µM (inactive) | 22.8 µM (inactive) | 32.1 µM |  | 19.6 µM (inactive) | 20 µM (inactive) | 28.9 µM (inactive) |  | 
7 | CCN(CC)CC1CN=C(N)O1 (stereo not drawn) | > 100 µM (inactive) |  | > 100 µM (inactive) | > 100 µM (inactive) | > 100 µM (inactive) | > 100 µM (inactive) | > 100 µM (inactive) | > 100 µM (inactive) | > 100 µM (inactive) | > 100 µM (inactive) | > 100 µM (inactive) | > 100 µM (inactive) | > 100 µM (inactive) | > 100 µM |  | > 100 µM (inactive) | > 100 µM (inactive) | > 100 µM (inactive) |  | > 100 µM (inactive)
8 | CC1(O)Oc2ccc3ccccc3c2C=C1C(N)=O (stereo not drawn) | > 100 µM (inactive) | > 100 µM (inactive) | 66.4 µM (inactive) | 46.5 µM (inactive) | 77.1 µM (inactive) | 64.9 µM (inactive) | > 100 µM (inactive) | > 100 µM (inactive) | 28.1 µM (inactive) | 54 µM (inactive) | > 100 µM (inactive) |  | > 100 µM (inactive) | 53.7 µM | > 100 µM (inactive) | 52 µM (inactive) | 40.4 µM (inactive) | > 100 µM (inactive) | > 100 µM (inactive) | 58.6 µM (inactive)
9 | Cc1ccc(Nc2nc(C)c(C(=O)CC(=O)C(=O)Nc3ccc(Cl)cc3)s2)cc1 | > 100 µM (inactive) | > 100 µM (inactive) | > 100 µM (inactive) | > 100 µM (inactive) | > 100 µM (inactive) | > 100 µM (inactive) | > 100 µM (inactive) | > 100 µM (inactive) | > 100 µM (inactive) | > 100 µM (inactive) | > 100 µM (inactive) |  | > 100 µM (inactive) | > 100 µM | > 100 µM (inactive) | 30.9 µM (inactive) | > 100 µM (inactive) | > 100 µM (inactive) | > 100 µM (inactive) | > 100 µM (inactive)
10 | COc1ccc(OC)c2c1C=C[C@H](C1(C)SCCS1)C2C(C)=O (stereo partly drawn) | 26.1 µM (inactive) | 40.2 µM (inactive) | 31.2 µM (inactive) | 19.6 µM (inactive) | 32.8 µM (inactive) | 26.7 µM (inactive) | 28.9 µM (inactive) | 23.9 µM (inactive) | 26 µM (inactive) | 41.1 µM (inactive) | 23 µM (inactive) |  | > 10 µM (inactive) | 33.1 µM | 20.4 µM (inactive) |  |  | 50.1 µM (inactive) | 17.2 µM (inactive) | 17.2 µM (inactive)
11 | CC1=CC(=O)/C(=C/NC(=S)NCCc2ccccc2)C(=O)O1 | > 100 µM (inactive) | 6.44 µM (inactive) | > 100 µM (inactive) |  | > 100 µM (inactive) | > 100 µM (inactive) | > 100 µM (inactive) | > 100 µM (inactive) |  | > 100 µM (inactive) | 27.2 µM (inactive) | 53.7 µM (inactive) | > 100 µM (inactive) | > 100 µM | > 100 µM (inactive) | 75 µM (inactive) | > 100 µM (inactive) | > 100 µM (inactive) |  | > 100 µM (inactive)
12 | CCCCC1CC(c2cccc([N+](=O)[O-])c2)=NO1 (stereo not drawn) | 83.2 µM (inactive) | > 100 µM (inactive) | > 100 µM (inactive) | > 100 µM (inactive) | > 100 µM (inactive) |  |  | 97.7 µM (inactive) | 49.2 µM (inactive) | 58.2 µM (inactive) | > 100 µM (inactive) |  | > 100 µM (inactive) | > 100 µM | > 100 µM (inactive) | > 100 µM (inactive) | > 100 µM (inactive) | 58.5 µM (inactive) |  | 43.1 µM (inactive)
13 | O=S(=O)(c1ccccc1)N1CN2CN(C1)CN(S(=O)(=O)c1ccccc1)C2 | 97.3 µM (inactive) | > 100 µM (inactive) | > 100 µM (inactive) | > 100 µM (inactive) | > 100 µM (inactive) | > 100 µM (inactive) | > 100 µM (inactive) | > 100 µM (inactive) | > 100 µM (inactive) | > 100 µM (inactive) | > 100 µM (inactive) | > 100 µM (inactive) | > 100 µM (inactive) | > 100 µM | > 100 µM (inactive) | 22.7 µM (inactive) | > 100 µM (inactive) | > 100 µM (inactive) |  | > 100 µM (inactive)
14 | C[N+](C)(C)CC(=O)N/N=C\c1c(O)ccc2ccccc12 | 21.4 µM (inactive) | 28.2 µM (inactive) | 31.5 µM (inactive) | 33.2 µM (inactive) | 13.2 µM (inactive) | 37.6 µM (inactive) | 23.8 µM (inactive) | 46.1 µM (inactive) | 29.5 µM (inactive) | 35.7 µM (inactive) | 42.6 µM (inactive) |  | > 100 µM (inactive) | 27.7 µM | 34.8 µM (inactive) | 16.8 µM (inactive) | 28.3 µM (inactive) |  | 14.4 µM (inactive) | 16.2 µM (inactive)
15 | CCOC(=O)c1c(C(F)(F)F)oc2c1ccc1nc3nonc3nc12 | 15.7 µM (inactive) | 19.4 µM (inactive) | 9.14 µM (inactive) | 3.58 µM (inactive) | 13.2 µM (inactive) |  |  | 27 µM (inactive) | 16.7 µM (inactive) | 17.9 µM (inactive) | 17 µM (inactive) |  | 24.2 µM (inactive) | 17.3 µM | 20.1 µM (inactive) | 13.2 µM (inactive) | 19.3 µM (inactive) | 24.9 µM (inactive) |  | 13.4 µM (inactive)
16 | Nc1ncc(Cc2nc3ccccc3s2)s1 | 90.4 µM (inactive) | 85.5 µM (inactive) | 42.3 µM (inactive) |  | 68.4 µM (inactive) | 63.5 µM (inactive) | > 100 µM (inactive) | 40.9 µM (inactive) |  | 30 µM (inactive) | 52.1 µM (inactive) |  | 34.4 µM (inactive) | > 100 µM | > 100 µM (inactive) | > 100 µM (inactive) | > 100 µM (inactive) | > 100 µM (inactive) | 15.1 µM (inactive) | 28.6 µM (inactive)
